The values below come from article PMC3832641, “Inhibition of Leishmania (Leishmania) amazonensis and Rat Arginases by Green Tea EGCG, (+)-Catechin and (−)-Epicatechin: A Comparative Structural Analysis of Enzyme-Inhibitor Interactions” (PLoS ONE, 2013).

In general, inhibition refers to the relative decrease from the control value, in per cent. A high value points to a strong effect. In general, Ki refers to a measure of affinity in units of concentration, obtained from inhibition or displacement. One may read the IC50 as the midpoint of a concentration-inhibition curve.

Assay [1] deals with L. (L.) donovani amastigotes. Further details: method as in PMID 16569852. The settings on record: cited from earlier work.
The target of assay [2] is T1, rat liver arginase (ARG-1) (Rattus norvegicus, UniProt P07824).
T1 construct: Rat liver arginase (ARG-1) was prepared by lysing 5 g of liver cells; from tissue; host or cells: rat liver
T1 sequence (P07824 1-323): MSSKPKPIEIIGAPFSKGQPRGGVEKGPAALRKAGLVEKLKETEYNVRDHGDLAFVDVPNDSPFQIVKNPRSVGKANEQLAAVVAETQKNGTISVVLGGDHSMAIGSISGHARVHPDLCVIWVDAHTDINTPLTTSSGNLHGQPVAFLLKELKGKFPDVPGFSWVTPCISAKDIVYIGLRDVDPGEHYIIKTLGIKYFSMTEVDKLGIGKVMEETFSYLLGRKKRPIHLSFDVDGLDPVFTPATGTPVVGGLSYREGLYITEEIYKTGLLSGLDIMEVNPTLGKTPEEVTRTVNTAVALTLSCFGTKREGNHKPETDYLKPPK
Kind of assay: Inhibition of rat liver arginase (ARG-1). Format: biochemical. The settings on record: for Inhibition of ARG-1: inhibitors at 10 µM or 100 µM; for inhibition at 1000 µM: inhibitors at 1000 µM.

Assay [3] deals with T2, recombinant arginase from Leishmania amazonensis (ARG-L) (Leishmania amazonensis, UniProt O96394). Kind of assay: ARG-L enzyme kinetics: Ki, Ki' and mechanism of inhibition (Dixon and Cornish-Bowden plots). The settings on record: for Ki': Cornish-Bowden plot, dissociation constant of enzyme-inhibitor-substrate complex; for Ki' / Ki: mean ± SEM; for Mode of inhibition: Dixon and Cornish-Bowden plots; for Ki: Dixon plot, dissociation constant of enzyme-inhibitor complex. It is filed as biochemical. The procedure:
All reactions were performed in CHES buffer, 50 mM, pH 9.5, containing various concentrations of the substrate L-[…].5, 25, 50 and 100 mM) at pH 9.5. Inhibitors were used at three different concentrations similar to the IC50. The different substrate and inhibitor concentrations were obtained by serial dilution. A mixture, M1, containing L-arginine (pH 9.5) at double the desired concentration and a second mixture, M2, containing the enzyme (2000 units) diluted in 125 mM CHES buffer (pH 9.5) were prepared. The reaction mixture was obtained by homogenizing 50 μL of M1, 10 μL of inhibitor and adding 40 μL of M2. The addition of M2 was synchronized every 15 seconds, followed by immediate incubation in a water bath for 15 minutes at 37°C. The urea produced was analyzed as described above. […] Each constant was determined by calculating X values at the intersection points between two lines obtained by linear regression. […] Ki and Ki' is a positive value of the calculated X (Ki = -X). For three different values of S, three lines were drawn for 1/v against i (Dixon plot) and three lines for S/v against i (Cornish-Bowden plot). In the Dixon plot, the lines intersect at a point where i = -Ki and 1/v = [1- (Ki/Ki')]/Vmax; in the Cornish-Bowden plot, they intersect at a point where i = -Ki' and S/v = KM[1- (Ki'/Ki)]/Vmax. To make wizard Ki and Ki' calculations, linear data fitting was performed using Microsoft Office Excel v.2013. The linear equations were obtained by linear regression R^2>0.85. Linear regression retrieved the linear equation y(n) = […]), which calculates the reciprocal of the ratio of reaction 1/v (y(n)) as a function of variable inhibitor concentration (x(n)). The term b(n) is the reciprocal of the maximum ratio of reaction (1/Vmax) obtained at a fixed S concentration and variable i concentration. The Dixon and Cornish-Bowden plots were constructed using a mean of each point obtained from three independent experiments performed in duplicate. Three interception points were obtained by the combination of two linear equations for each time point. Then, Ki and Ki' were calculated using equation (7) and were expressed as mean values ± SEM (standard error of the mean).

Assay [4] addresses T2, recombinant arginase from Leishmania amazonensis (ARG-L). Kind of assay: biochemical.
The test system of another assay is L. (L.) amazonensis. Further details: method as in PMID 22735546. The settings on record: cited from earlier work.

As to `O=C(OC1Cc2c(O)cc(O)cc2OC1c1cc(O)c(O)c(O)c1)c1cc(O)c(O)c(O)c1` (single isomer, unassigned; (-)) [EGCG, (−)-Epigallocatechin-3-gallate], the “Leishmanicidal activity / effect on growth of the parasite” value (“Leishmanicidal activity / effect” for short) in assay [1] is given as “shows leishmanicidal activity”. In addition, in assay [2], the “Inhibition of ARG-1” value is recorded as “did not significantly inhibit” and at 1000 µM the inhibition was 29%. In assay [3], the “Ki'” value amounted to 12.5 ± 0.4 µM, the Mode of inhibition entry is on record as “mixed inhibitor” and the Ki came to 4 ± 0.5 µM. Further, the IC50 in assay [4] stood at 3.8 ± 0.1 µM. In the assay with L. (L.) amazonensis, the “Effect on parasite mitochondria” value is on record as “damages mitochondria, contributing to the death of the parasite”.
For the compound `Oc1cc(O)c2c(c1)O[C@H](c1ccc(O)c(O)c1)[C@@H](O)C2` [(+)-catechin], in assay [1], the “Leishmanicidal activity / effect” value was “little effect on the growth of the parasite”. In addition, in assay [2], the “Inhibition of ARG-1” value was “did not significantly inhibit” and the inhibition at 1000 µM was 26%.
Turning to `Oc1cc(O)c2c(c1)O[C@H](c1ccc(O)c(O)c1)[C@H](O)C2` [(−)-epicatechin], the “Leishmanicidal activity / effect” value in assay [1] is “little effect on the growth of the parasite”. Moreover, in assay [2], the “Inhibition of ARG-1” value is “did not significantly inhibit” and the inhibition at 1000 µM is 22%.
On to `O=C(O)c1cc(O)c(O)c(O)c1` [Gallic acid], for which, in assay [2], the “Inhibition of ARG-1” value is recorded as “did not significantly inhibit” and at 1000 µM the inhibition was 20%. In assay [3], the “Ki'” value is 7.2 ± 1.4 µM, the Mode of inhibition entry is given as “Noncompetitive” and the Ki worked out at 7.2 ± 1.4 µM. For the same compound, in assay [3] (listed as gallic acid), the Mode of inhibition result is “noncompetitive inhibitor”. For the same compound, the IC50 in assay [4] was 2.2 ± 0.2 µM.
